Measured values published in publication PMC7675582, “Time-Dependent Fluorescence Spectroscopy to Quantify Complex Binding Interactions” (ACS Omega, 2020).

Biological target: T1, galectin-3 (Homo sapiens, UniProt P17931)
T1 construct: gene LGALS3; recombinant human galectin-3, GST-purified with the GST tag removed
Test: intrinsic tryptophan fluorescence lifetime titration (direct waveform recording, excitation at […] nm), fit with n = […]
Assay type: binding

T1 sequence (P17931 2-250): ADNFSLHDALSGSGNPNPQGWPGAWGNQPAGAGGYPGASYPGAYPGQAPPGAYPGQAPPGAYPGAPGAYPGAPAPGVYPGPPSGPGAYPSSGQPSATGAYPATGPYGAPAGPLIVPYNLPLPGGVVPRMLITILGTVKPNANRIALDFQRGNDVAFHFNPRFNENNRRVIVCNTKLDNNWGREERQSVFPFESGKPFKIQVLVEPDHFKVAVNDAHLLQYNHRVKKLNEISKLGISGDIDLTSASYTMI

Kd: 54 ± 10 µM
SMILES: COC1O[C@H](CO)[C@@H](O[C@@H]2O[C@H](CO)[C@H](O)[C@H](O)[C@H]2O)[C@H](O)[C@H]1O (stereo partly shown) [methyllactose]
